Assay results taken from paper PMC12090182, “Repurposing of the RIPK1-Selective Benzo[1,4]oxazepin-4-one Scaffold for the Development of a Type III LIMK1/2 Inhibitor” (ACS Chemical Biology, 2025).

Legend:
Experiment in all cases: biochemical
Format in all cases: binding
[1] = molecular target: 468 kinases including some pathogenic mutants (Homo sapiens, UniProt P36894); details: BMPR1A (Entrez BMPR1A), 100 nM; read-out: Percent Control
[2] = molecular target: 468 kinases including some pathogenic mutants (Homo sapiens, UniProt Q8NE63); details: HIPK4 (Entrez HIPK4), 100 nM; read-out: Percent Control
[3] = molecular target: 468 kinases including some pathogenic mutants (Homo sapiens, UniProt Q9HCP0); details: CSNK1G1 (Entrez CSNK1G1), 100 nM; read-out: Percent Control
[4] = molecular target: 468 kinases including some pathogenic mutants (Homo sapiens, UniProt Q02750); details: MEK1 (Entrez MAP2K1), 1000 nM; read-out: Percent Control
[5] = molecular target: 468 kinases including some pathogenic mutants (Homo sapiens, UniProt Q6P3R8); details: NEK5 (Entrez NEK5), 100 nM; read-out: Percent Control
[6] = molecular target: 468 kinases including some pathogenic mutants (Homo sapiens, UniProt O43283); details: LZK (Entrez MAP3K13), 100 nM; read-out: Percent Control
[7] = molecular target: 468 kinases including some pathogenic mutants (Homo sapiens, UniProt Q9BYP7); details: WNK3 (Entrez WNK3), 100 nM; read-out: Percent Control
[8] = molecular target: 468 kinases including some pathogenic mutants (Homo sapiens, UniProt Q6ZWH5); details: NEK10 (Entrez NEK10), 100 nM; read-out: Percent Control
[9] = molecular target: 468 kinases including some pathogenic mutants (Homo sapiens, UniProt O75385); details: ULK1 (Entrez ULK1), 1000 nM; read-out: Percent Control
[10] = molecular target: 468 kinases including some pathogenic mutants (Homo sapiens, UniProt Q8TF76); details: HASPIN (Entrez GSG2), 100 nM; read-out: Percent Control
[11] = molecular target: 468 kinases including some pathogenic mutants (Homo sapiens, UniProt P14616); details: INSRR (Entrez INSRR), 100 nM; read-out: Percent Control
[12] = molecular target: 468 kinases including some pathogenic mutants (Homo sapiens, UniProt Q9NY57); details: YANK2 (Entrez STK32B), 1000 nM; read-out: Percent Control
[13] = molecular target: 468 kinases including some pathogenic mutants (Homo sapiens, UniProt Q99755); details: PIP5K1A (Entrez PIP5K1A), 100 nM; read-out: Percent Control
[14] = molecular target: 468 kinases including some pathogenic mutants (Homo sapiens, UniProt Q9Y4K4); details: MAP4K5 (Entrez MAP4K5), 100 nM; read-out: Percent Control
[15] = molecular target: 468 kinases including some pathogenic mutants (Homo sapiens, UniProt Q9Y6E0); details: MST3 (Entrez STK24), 100 nM; read-out: Percent Control
[16] = molecular target: 468 kinases including some pathogenic mutants (Homo sapiens, UniProt Q99640); details: PKMYT1 (Entrez PKMYT1), 100 nM; read-out: Percent Control
[17] = molecular target: 468 kinases including some pathogenic mutants (Homo sapiens, UniProt Q15831); details: LKB1 (Entrez STK11), 100 nM; read-out: Percent Control
[18] = molecular target: 468 kinases including some pathogenic mutants (Homo sapiens, UniProt Q9NRP7); details: STK36 (Entrez STK36), 100 nM; read-out: Percent Control
[19] = molecular target: 468 kinases including some pathogenic mutants (Homo sapiens, UniProt Q9BVS4); details: RIOK2 (Entrez RIOK2), 1000 nM; read-out: Percent Control
[20] = molecular target: 468 kinases including some pathogenic mutants (Homo sapiens, UniProt P51812); details: read-out: Percent Control
[21] = molecular target: 468 kinases including some pathogenic mutants (Homo sapiens, UniProt P29322); details: EPHA8 (Entrez EPHA8), 100 nM; read-out: Percent Control
[22] = molecular target: 468 kinases including some pathogenic mutants (Homo sapiens, UniProt O14578); details: CIT (Entrez CIT), 100 nM; read-out: Percent Control
[23] = molecular target: 468 kinases including some pathogenic mutants (Homo sapiens, UniProt Q9H2X6); details: HIPK2 (Entrez HIPK2), 100 nM; read-out: Percent Control
[24] = molecular target: 468 kinases including some pathogenic mutants (Homo sapiens, UniProt P00533, L861Q); details: read-out: Percent Control
[25] = molecular target: 468 kinases including some pathogenic mutants (Homo sapiens, UniProt Q86UX6); details: YANK3 (Entrez STK32C), 100 nM; read-out: Percent Control
[26] = molecular target: 468 kinases including some pathogenic mutants (Homo sapiens, UniProt O43353); details: RIPK2 (Entrez RIPK2), 100 nM; read-out: Percent Control
[27] = molecular target: 468 kinases including some pathogenic mutants (Homo sapiens, UniProt Q13233); details: MAP3K1 (Entrez MAP3K1), 1000 nM; read-out: Percent Control
[28] = molecular target: 468 kinases including some pathogenic mutants (Homo sapiens, UniProt O15146); details: MUSK (Entrez MUSK), 100 nM; read-out: Percent Control

Sequence of 468 kinases including some pathogenic mutants (Homo sapiens, UniProt P51812) (P51812 whole entry, change not shown): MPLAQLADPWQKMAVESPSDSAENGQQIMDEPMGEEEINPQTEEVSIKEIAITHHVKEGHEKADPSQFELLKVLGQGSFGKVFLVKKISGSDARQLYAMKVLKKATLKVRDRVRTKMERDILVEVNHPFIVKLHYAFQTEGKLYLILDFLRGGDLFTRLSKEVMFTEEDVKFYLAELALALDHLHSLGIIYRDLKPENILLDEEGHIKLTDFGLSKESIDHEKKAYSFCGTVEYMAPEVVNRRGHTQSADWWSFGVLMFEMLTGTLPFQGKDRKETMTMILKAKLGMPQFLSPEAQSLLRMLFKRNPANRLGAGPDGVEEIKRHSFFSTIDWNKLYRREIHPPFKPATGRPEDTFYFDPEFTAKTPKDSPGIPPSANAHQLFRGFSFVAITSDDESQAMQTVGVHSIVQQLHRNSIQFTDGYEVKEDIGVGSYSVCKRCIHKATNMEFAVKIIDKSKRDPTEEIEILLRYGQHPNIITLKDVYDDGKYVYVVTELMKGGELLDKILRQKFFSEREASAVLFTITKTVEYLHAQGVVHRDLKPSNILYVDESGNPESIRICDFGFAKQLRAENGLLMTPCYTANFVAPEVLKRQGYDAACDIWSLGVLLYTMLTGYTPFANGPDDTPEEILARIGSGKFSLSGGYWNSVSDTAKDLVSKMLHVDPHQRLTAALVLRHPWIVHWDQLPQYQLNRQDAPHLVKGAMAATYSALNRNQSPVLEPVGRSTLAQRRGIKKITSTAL
Sequence of 468 kinases including some pathogenic mutants (Homo sapiens, UniProt P29322) (P29322 28-1005, change not shown): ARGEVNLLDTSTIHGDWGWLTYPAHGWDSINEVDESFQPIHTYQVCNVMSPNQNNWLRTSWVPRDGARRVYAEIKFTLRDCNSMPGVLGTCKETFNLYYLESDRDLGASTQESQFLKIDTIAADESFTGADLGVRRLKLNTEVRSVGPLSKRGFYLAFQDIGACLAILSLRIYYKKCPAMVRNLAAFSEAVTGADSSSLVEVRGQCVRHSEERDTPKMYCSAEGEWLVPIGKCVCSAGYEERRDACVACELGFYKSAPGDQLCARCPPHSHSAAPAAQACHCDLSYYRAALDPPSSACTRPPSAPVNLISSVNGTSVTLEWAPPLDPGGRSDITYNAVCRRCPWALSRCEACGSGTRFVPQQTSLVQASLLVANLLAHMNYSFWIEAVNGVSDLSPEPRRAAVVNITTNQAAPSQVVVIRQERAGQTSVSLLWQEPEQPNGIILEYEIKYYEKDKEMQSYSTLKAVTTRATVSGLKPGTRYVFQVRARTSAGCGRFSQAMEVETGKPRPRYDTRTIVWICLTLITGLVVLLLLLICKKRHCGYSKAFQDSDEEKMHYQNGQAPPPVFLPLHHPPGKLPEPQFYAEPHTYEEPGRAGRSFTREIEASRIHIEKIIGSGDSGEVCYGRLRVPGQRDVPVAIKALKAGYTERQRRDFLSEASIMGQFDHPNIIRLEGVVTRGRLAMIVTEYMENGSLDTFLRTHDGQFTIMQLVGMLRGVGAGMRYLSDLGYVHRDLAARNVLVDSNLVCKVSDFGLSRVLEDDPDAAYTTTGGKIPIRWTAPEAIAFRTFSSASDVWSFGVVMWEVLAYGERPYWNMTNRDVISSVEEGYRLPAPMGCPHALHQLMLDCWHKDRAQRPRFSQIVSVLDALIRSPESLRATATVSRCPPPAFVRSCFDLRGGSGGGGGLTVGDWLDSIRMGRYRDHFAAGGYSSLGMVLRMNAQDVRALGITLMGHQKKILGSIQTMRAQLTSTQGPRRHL
Sequence of 468 kinases including some pathogenic mutants (Homo sapiens, UniProt Q9NRP7) (Q9NRP7 whole entry, change not shown): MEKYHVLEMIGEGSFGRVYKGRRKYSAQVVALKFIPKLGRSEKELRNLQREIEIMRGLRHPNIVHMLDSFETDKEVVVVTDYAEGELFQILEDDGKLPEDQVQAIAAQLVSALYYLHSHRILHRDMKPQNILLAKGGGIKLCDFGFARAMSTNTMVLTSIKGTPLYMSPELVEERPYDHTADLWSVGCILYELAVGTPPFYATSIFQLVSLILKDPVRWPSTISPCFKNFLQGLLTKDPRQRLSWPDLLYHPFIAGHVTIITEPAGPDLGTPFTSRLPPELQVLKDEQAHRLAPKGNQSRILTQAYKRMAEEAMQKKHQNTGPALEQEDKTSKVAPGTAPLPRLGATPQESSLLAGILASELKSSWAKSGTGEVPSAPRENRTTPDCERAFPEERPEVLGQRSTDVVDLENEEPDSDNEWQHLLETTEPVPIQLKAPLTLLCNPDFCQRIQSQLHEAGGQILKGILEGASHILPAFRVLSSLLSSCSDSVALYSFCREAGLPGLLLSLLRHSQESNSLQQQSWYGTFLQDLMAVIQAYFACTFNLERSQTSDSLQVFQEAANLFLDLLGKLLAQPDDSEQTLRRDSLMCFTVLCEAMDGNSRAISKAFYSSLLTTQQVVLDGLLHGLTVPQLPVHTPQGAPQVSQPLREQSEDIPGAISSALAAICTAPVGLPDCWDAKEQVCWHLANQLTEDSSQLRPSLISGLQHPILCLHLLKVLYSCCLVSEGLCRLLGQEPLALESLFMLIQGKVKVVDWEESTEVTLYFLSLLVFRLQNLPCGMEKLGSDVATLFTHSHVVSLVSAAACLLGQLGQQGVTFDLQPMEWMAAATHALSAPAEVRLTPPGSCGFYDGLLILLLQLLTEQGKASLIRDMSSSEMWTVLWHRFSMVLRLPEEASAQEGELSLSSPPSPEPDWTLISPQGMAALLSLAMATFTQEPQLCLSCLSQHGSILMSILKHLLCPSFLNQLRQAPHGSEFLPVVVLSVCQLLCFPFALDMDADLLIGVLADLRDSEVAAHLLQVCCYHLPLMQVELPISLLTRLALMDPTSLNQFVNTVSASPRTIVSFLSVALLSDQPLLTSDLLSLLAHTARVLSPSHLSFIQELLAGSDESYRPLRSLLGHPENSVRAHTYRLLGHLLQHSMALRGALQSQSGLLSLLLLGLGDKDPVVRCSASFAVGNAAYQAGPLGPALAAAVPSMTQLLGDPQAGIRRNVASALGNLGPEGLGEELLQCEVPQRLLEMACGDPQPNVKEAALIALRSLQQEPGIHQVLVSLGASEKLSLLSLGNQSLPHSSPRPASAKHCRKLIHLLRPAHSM
Sequence of 468 kinases including some pathogenic mutants (Homo sapiens, UniProt Q99640) (Q99640 whole entry, change not shown): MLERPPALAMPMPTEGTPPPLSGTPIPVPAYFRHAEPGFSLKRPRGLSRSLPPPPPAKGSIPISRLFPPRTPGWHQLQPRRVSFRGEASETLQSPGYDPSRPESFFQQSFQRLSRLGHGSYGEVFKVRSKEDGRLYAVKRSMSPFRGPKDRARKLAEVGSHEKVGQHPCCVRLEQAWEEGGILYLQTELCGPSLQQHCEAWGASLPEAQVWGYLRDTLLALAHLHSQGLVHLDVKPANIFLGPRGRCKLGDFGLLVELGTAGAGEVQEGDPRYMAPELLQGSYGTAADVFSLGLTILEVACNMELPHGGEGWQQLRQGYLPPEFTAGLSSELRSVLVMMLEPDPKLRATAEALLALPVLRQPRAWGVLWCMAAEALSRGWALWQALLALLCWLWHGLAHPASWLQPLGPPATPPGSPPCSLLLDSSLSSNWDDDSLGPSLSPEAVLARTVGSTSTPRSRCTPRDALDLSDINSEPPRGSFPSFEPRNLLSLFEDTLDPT
Sequence of 468 kinases including some pathogenic mutants (Homo sapiens, UniProt Q6ZWH5) (Q6ZWH5 whole entry, change not shown): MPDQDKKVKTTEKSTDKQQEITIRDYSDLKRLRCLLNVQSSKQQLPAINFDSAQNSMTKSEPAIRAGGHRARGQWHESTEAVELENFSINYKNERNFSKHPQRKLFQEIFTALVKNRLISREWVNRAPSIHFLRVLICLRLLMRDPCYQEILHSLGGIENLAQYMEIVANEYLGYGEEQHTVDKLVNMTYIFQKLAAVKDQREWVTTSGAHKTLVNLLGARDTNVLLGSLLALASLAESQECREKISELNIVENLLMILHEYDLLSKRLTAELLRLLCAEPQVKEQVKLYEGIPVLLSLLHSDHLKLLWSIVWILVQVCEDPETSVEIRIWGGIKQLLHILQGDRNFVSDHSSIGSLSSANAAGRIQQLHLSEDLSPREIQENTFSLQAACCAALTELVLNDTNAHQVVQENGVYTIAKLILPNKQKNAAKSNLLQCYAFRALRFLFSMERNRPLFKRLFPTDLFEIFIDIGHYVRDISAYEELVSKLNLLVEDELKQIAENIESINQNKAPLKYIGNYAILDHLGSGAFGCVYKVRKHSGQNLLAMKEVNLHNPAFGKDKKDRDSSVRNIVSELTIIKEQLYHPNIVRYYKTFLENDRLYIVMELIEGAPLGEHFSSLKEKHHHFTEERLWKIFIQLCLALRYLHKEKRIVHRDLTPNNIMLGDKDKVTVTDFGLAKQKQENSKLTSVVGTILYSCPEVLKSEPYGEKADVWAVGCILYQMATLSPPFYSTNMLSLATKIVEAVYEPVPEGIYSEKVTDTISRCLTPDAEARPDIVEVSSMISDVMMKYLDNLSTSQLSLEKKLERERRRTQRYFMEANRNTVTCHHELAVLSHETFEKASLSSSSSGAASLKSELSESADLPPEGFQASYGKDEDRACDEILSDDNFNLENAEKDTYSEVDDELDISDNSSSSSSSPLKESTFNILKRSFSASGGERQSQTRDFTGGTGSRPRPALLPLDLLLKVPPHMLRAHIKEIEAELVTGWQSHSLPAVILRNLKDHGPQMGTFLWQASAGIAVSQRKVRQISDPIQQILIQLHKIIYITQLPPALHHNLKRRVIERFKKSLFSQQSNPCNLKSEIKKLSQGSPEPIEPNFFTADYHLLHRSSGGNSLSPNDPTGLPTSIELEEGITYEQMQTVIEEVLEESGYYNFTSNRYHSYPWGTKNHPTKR
Sequence of 468 kinases including some pathogenic mutants (Homo sapiens, UniProt Q02750) (Q02750 whole entry, change not shown): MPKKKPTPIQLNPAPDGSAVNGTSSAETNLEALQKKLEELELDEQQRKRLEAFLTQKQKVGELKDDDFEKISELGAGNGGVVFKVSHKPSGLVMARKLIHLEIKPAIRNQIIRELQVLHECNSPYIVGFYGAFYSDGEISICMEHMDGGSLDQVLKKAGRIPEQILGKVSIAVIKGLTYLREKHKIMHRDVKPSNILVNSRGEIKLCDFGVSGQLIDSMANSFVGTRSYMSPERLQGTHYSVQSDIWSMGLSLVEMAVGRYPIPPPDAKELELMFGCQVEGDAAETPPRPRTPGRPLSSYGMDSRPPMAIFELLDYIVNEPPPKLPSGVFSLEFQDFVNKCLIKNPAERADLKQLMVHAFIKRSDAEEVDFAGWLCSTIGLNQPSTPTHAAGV

CN1C(=O)[C@@H](N2CCc3c(nn(Cc4ccccc4)c3C(N)=O)C2=O)COc2cc(Cl)ccc21 [Compound 10, (S)-2-benzyl-6-(8-chloro-5-methyl-4-oxo-2,3,4,5-tetrahydrobenzo[b][1,4]oxazepin-3-yl)-7-oxo-4,5,6,7-tetrahydro-2H-pyrazolo[3,4-c]pyridine-3-carboxamide]
remaining activity at 0.1 µM [1]: 78% | remaining activity at 0.1 µM [2]: 73% | remaining activity at 0.1 µM [3]: 80% | remaining activity at 1 µM [4]: 100% | remaining activity at 0.1 µM [5]: 87% | remaining activity at 0.1 µM [6]: 100% | remaining activity at 0.1 µM [7]: 73% | remaining activity at 0.1 µM [8]: 89% | remaining activity at 1 µM [9]: 100% | remaining activity at 0.1 µM [10]: 89% | remaining activity at 0.1 µM [11]: 68% | remaining activity at 1 µM [12]: 100% | remaining activity at 0.1 µM [13]: 100% | remaining activity at 0.1 µM [14]: 100% | remaining activity at 0.1 µM [15]: 97% | remaining activity at 0.1 µM [16]: 90% | remaining activity at 0.1 µM [17]: 97% | remaining activity at 0.1 µM [18]: 100% | remaining activity at 1 µM [19]: 100% | remaining activity at 1 µM ([20]; RSK2(Kin.Dom.1-N-terminal) (Entrez RPS6KA3), 1000 nM): 100% | remaining activity at 0.1 µM ([20]; RSK2(Kin.Dom.2-C-terminal) (Entrez RPS6KA3), 100 nM): 74% | remaining activity at 0.1 µM [21]: 87% | remaining activity at 0.1 µM [22]: 95% | remaining activity at 0.1 µM [23]: 78% | remaining activity at 0.1 µM [24]: 100% | remaining activity at 0.1 µM [25]: 86% | remaining activity at 0.1 µM [26]: 87% | remaining activity at 1 µM [27]: 100% | remaining activity at 0.1 µM [28]: 94%
